Results from patent publication US20180003723A1, “METHODS AND SYSTEMS FOR […] DISORDERS” (OASIS DIAGNOSTICS CORPORATION, priority 2014, published 2018).

Tests used:
[1] = system: patients diagnosed with idiopathic central sleep apnea; assay: Hospital based clinical trial of zolpidem: follow-up polysomnogram and Epworth Sleepiness Scale; type: in vivo, human
Method: Idiopathic central sleep apnea was defined by central apnea and hypopnea index (CAHI)≧10 events per hour of sleep, and obstructive apnea/hypopnea index ≦5 events per hour of sleep. An apnea was defined as a cessation or reduction in peak oronasal airflow≧70% of baseline, lasting ≧15 s. Hypopnea was defined as a reduction in peak oronasal airflow ≧50%, ≧70% of baseline for ≧15 s, along with a ≧4% drop in SpO2 relative to pre-event baseline value. The apnea/hypopnea index was calculated for all events relative to total sleep time and documented separately for central and obstructive events. Central apneas and hypopneas comprised the central and obstructive apneas and hypopneas plus mixed apneas and hypopneas comprised the obstructive apnea-hypopnea index (OAHI). Exclusion criteria comprise such as clinical or echocardiographic diagnosis of systolic heart failure, diastolic cardiac dysfunction, or a history of transient ischemic attack or stroke. Those with a typical pattern of Cheyne Stokes respiration during sleep were also excluded. Patients with obstructive sleep apnea with an Apnea-Hypopnea Index of (AHI) ≧5 events per hour prior to continuous positive airway pressure device (CPAP) use, or a history of restless legs syndrome/periodic leg movements were also excluded. […] Patients with hypercapnic lung disease or those with obesity hypoventilation syndrome were also excluded. Subjects were given the Epworth Sleepiness Scale (ESS), and a physical exam followed by an 8-h diagnostic polysomnogram (PSG). […] Outpatient monitoring was conducted every four weeks to assess patients for side effects and for evaluation of daytime sleepiness, using the ESS. […] Nocturnal polysomnographic assessment using the Grass Aurora system was performed in a standard way consisting of an electroencephalogram (EEG), an electrooculogram (EOG), a submental electromyogram (EMG), an anterior tibialis EMG, and an electrocardiogram (ECG) (Rechtschaffen A, Kales A. A manual of standardized terminology, techniques and scoring system for sleep stages in human subjects. Washington D.C.: US Government Printing Office. National Institute of Health Publication; 1968). Nasal-oral airflow was measured using thermocouples. Abdominal and thoracic respiratory movements were recorded with respiratory effort belts using piezoelectric crystal sensors. Transcutaneous oxyhemoglobin saturation (SpO2) was monitored with finger pulse oximetry. A recording of sleep position was performed using video monitoring and snoring was recorded using a snore sensor. An experienced sleep physician, blinded to the study protocol, scored sleep recordings. Sleep architecture was analyzed according to standardized way (Rechtschaffen A, Kales A. A manual of standardized terminology, techniques and scoring system for sleep stages in human subjects. Washington D.C.: US Government Printing Office. National Institute of Health Publication; 1968). Unstimulated saliva samples were collected and biomarker levels measured in the morning prior to beginning and after 150 days of study. Ten minutes prior to collection of unstimulated saliva samples, individuals were asked to rinse orally with water. At the time of sample collection, study members were asked to relax for 5-15 minutes. They were then seated in a bent forward position in an ordinary chair and asked to put their tongues on the lingual surfaces of the upper incisors and allow the saliva to drip into sterile plastic (glass) tubes treated with […] of 2% sodium azide solution to prevent microbial decomposition of saliva. The tubes were held to the lower lip for 10 minutes resulting in a collection of 1-5 ml of saliva per individual.

[2] = system: patients with idiopathic central sleep apnea; assay: Salivary biomarker levels before and after zolpidem treatment (commercial kits, NMR); type: in vivo, human; conditions: unstimulated saliva, morning, after 150 days of study, mean
Method: Idiopathic central sleep apnea was defined by central apnea and hypopnea index (CAHI)≧10 events per hour of sleep, and obstructive apnea/hypopnea index ≦5 events per hour of sleep. An apnea was defined as a cessation or reduction in peak oronasal airflow≧70% of baseline, lasting ≧15 s. Hypopnea was defined as a reduction in peak oronasal airflow ≧50%, ≧70% of baseline for ≧15 s, along with a ≧4% drop in SpO2 relative to pre-event baseline value. The apnea/hypopnea index was calculated for all events relative to total sleep time and documented separately for central and obstructive events. Central apneas and hypopneas comprised the central and obstructive apneas and hypopneas plus mixed apneas and hypopneas comprised the obstructive apnea-hypopnea index (OAHI). Exclusion criteria comprise such as clinical or echocardiographic diagnosis of systolic heart failure, diastolic cardiac dysfunction, or a history of transient ischemic attack or stroke. Those with a typical pattern of Cheyne Stokes respiration during sleep were also excluded. Patients with obstructive sleep apnea with an Apnea-Hypopnea Index of (AHI) ≧5 events per hour prior to continuous positive airway pressure device (CPAP) use, or a history of restless legs syndrome/periodic leg movements were also excluded. Patients with prior use of sedative agents such as zolpidem, acetazolamide, theophylline, medroxyprogesterone, or any opiate, were also excluded from the study to exclude comparative bias when evaluating subjective response to zolpidem. Patients with hypercapnic lung disease or those with obesity hypoventilation syndrome were also excluded. Subjects were given the Epworth Sleepiness Scale (ESS), and a physical exam followed by an 8-h diagnostic polysomnogram (PSG). […] Outpatient monitoring was conducted every four weeks to assess patients for side effects and for evaluation of daytime sleepiness, using the ESS. […] Nocturnal polysomnographic assessment using the Grass Aurora system was performed in a standard way consisting of an electroencephalogram (EEG), an electrooculogram (EOG), a submental electromyogram (EMG), an anterior tibialis EMG, and an electrocardiogram (ECG) (Rechtschaffen A, Kales A. A manual of standardized terminology, techniques and scoring system for sleep stages in human subjects. Washington D.C.: US Government Printing Office. National Institute of Health Publication; 1968). Nasal-oral airflow was measured using thermocouples. Abdominal and thoracic respiratory movements were recorded with respiratory effort belts using piezoelectric crystal sensors. Transcutaneous oxyhemoglobin saturation (SpO2) was monitored with finger pulse oximetry. A recording of sleep position was performed using video monitoring and snoring was recorded using a snore sensor. An experienced sleep physician, blinded to the study protocol, scored sleep recordings. Sleep architecture was analyzed according to standardized way (Rechtschaffen A, Kales A. A manual of standardized terminology, techniques and scoring system for sleep stages in human subjects. Washington D.C.: US Government Printing Office. National Institute of Health Publication; 1968). Unstimulated saliva samples were collected and biomarker levels measured in the morning prior to beginning and after 150 days of study. Ten minutes prior to collection of unstimulated saliva samples, individuals were asked to rinse orally with water. At the time of sample collection, study members were asked to relax for 5-15 minutes. They were then seated in a bent forward position in an ordinary chair and asked to put their tongues on the lingual surfaces of the upper incisors and allow the saliva to drip into sterile plastic (glass) tubes treated with […] of 2% sodium azide solution to prevent microbial decomposition of saliva. The tubes were held to the lower lip for 10 minutes resulting in a collection of 1-5 ml of saliva per individual. […]

[3] = follow-up polysomnogram vs before treatment

## Cc1ccc(-c2nc3ccc(C)cn3c2CC(=O)N(C)C)cc1 [zolpidem]
[1]; after vs before treatment
  Excessive daytime sleepiness, measured by the Epworth Sleepiness Scale (ESS), change: decreased
[1]; [3]
  central AHI (CAHI), change on follow-up polysomnogram: significantly decreased
  sleep latency, change: decreased
  stage 1, 3, and 4 sleep percentages, change: decreased
  stage 2 percentages, change: increased
  total number of arousals per hour, change with treatment use: decreased
[1]; mean, 10 patients, zolpidem 10 mg orally each night, repeat PSG six to ten weeks after initiation, Before 32.6, P 0.0001
  Apnea hypopnea, After: 12.6
[1]; mean, zolpidem 10 mg orally each night, Before 13.7, P 0.0001
  Epworth sleepiness score, After: 6.5
[1]; mean, zolpidem 10 mg orally each night, repeat PSG six to ten weeks, Before 1.3, P 0.05
  % TST stage 3 and 4, After: 0.8%
[1]; mean, zolpidem 10 mg orally each night, repeat PSG six to ten weeks, Before 4.6, P 0.005
  Total sleep time, After: 6.3 h
[1]; mean, zolpidem 10 mg orally each night, repeat PSG six to ten weeks, Before 10.4, P 0.05
  % TST REM, After: 14.5%
[1]; mean, zolpidem 10 mg orally each night, repeat PSG six to ten weeks, Before 34.6, P 0.05
  % TST stage 1, After: 21.3%
[2]; Before Treatment 0.56, P 0.001
  Salivary Arginine, After Treatment: 0.45 µmol/mL
[2]; Before Treatment 0.64, P 0.001
  Salivary Creatine, After Treatment: 0.47 µmol/mL
[2]; Before Treatment 0.67, P 0.005
  Salivary Tyrosine, After Treatment: 0.54 µmol/mL
[2]; Before Treatment 13.68, P 0.0001
  Salivary CgA, After Treatment: 4.23 pmol/mg protein
[2]; Before Treatment 34.4, P 0.0001
  Salivary Dihomo-linolenate, After Treatment: 27.1 µmol/mL
[2]; Before Treatment 36.5, P 0.0001
  Salivary Linolenate, After Treatment: 21.2 µmol/mL
[2]; Before Treatment 61.2, P 0.005
  Salivary 3-methyl-2-oxobutyrate, After Treatment: 54.1 µmol/mL
[2]; Before Treatment 72.1, P 0.0001
  Salivary Annexin 1, After Treatment: 56.3 ng/mL
[2]; Before Treatment 345.8, P 0.0001
  Salivary BDNF, After Treatment: 234.5 pg/mL
[2]; Before Treatment 2134.9, P 0.0001
  Salivary B-endorphin, After Treatment: 1235.3 pg/mL
